This note sets out measurements from ChEMBL document CHEMBL4184289, “Design, synthesis and anticancer activities evaluation of novel 5H-dibenzo[b,e]azepine-6,11-dione derivatives containing 1,3,4-oxadiazole units” (Bioorg Med Chem Lett, 2018).

The test system of assay [1] is OVCAR-3. In words: Antiproliferative activity against human OVCAR3 cells after 24 hrs by MTT assay. Format: functional, cell-based.
Assay [2] concerns the target Poly [ADP-ribose] polymerase 1 (Homo sapiens, UniProt P09874). As to the kind of experiment: Inhibition of recombinant human GST-tagged PARP1 expressed in Escherichia coli using damaged DNA as substrate after 30 mins in presence of NAD+ by resazurin dye based fluorescence assay.
The subject of assay [3] is OVCAR-3. In words: Induction of apoptosis in human OVCAR3 cells assessed as downregulation of Bcl2 protein expression at 0.625 to 10 uM after 24 hrs by Western blot method. Type of assay: functional, cell-based.
Setting [4] is: Homo sapiens, OVCAR-3, 24 h, read-out: IC50.

Activity calls are given as the source filed them. No cut-off for these calls is given here. Bounds are passed on as bounds.

Poly [ADP-ribose] polymerase 1, sequence (P09874 whole entry): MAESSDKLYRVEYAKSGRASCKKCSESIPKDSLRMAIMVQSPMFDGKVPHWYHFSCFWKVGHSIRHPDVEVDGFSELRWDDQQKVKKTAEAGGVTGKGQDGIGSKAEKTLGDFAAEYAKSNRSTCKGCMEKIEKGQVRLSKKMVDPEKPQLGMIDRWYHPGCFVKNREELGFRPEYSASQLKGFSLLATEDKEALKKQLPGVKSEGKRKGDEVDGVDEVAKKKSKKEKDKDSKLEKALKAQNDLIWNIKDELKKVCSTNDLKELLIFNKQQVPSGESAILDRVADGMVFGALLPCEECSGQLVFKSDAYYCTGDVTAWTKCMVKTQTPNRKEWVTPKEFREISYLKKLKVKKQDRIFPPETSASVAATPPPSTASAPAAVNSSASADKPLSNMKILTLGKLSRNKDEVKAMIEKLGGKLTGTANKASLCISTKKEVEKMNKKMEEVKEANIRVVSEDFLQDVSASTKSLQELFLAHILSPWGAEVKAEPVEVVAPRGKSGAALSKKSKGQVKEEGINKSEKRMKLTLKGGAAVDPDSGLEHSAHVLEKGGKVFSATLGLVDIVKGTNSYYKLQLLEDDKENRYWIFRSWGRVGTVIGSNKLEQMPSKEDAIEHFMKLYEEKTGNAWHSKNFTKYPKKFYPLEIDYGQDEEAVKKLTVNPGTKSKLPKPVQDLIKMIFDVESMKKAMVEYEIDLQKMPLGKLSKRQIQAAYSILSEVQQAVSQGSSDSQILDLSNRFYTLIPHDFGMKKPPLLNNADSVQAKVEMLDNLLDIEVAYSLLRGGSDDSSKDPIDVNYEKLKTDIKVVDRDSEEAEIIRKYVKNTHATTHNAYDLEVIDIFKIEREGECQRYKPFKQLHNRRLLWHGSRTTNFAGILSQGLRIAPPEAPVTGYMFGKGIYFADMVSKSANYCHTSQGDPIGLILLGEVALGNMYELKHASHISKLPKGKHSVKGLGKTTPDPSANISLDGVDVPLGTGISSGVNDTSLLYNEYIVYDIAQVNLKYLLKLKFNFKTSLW

Regarding `O=c1[nH]c2c(-c3nnc(/C=C/c4ccccc4)o3)cccc2c(=O)c2ccccc12`, the IC50 with OVCAR-3 [1] (setting [4]) stood at 12100 nM; in assay [2] (read-out: IC50) it was 400 nM.
For `COc1c(Br)cc(Br)cc1/C=C/c1nnc(-c2cccc3c(=O)c4ccccc4c(=O)[nH]c23)o1`, the figures for the IC50 (with OVCAR-3 [1] (setting [4]); in assay [2] (read-out: IC50)) were 1400 nM and 25 nM, respectively. The outcome with OVCAR-3 [3] was Active.
Regarding `COc1ccc(Br)cc1/C=C/c1nnc(-c2cccc3c(=O)c4ccccc4c(=O)[nH]c23)o1`, the figures for the 50% inhibitory concentration (IC50) (in the assay with OVCAR-3 [1] (setting [4]); in assay [2] (read-out: IC50)) were 1660 nM and 47 nM, respectively. Further, the result with OVCAR-3 [3] was Active.
On to `O=c1[nH]c2c(-c3nnc(-c4ccccc4)o3)cccc2c(=O)c2ccccc12`, for which the IC50 was above 100000 nM with OVCAR-3 [1] (setting [4]) and “Not Active” in assay [2].
Regarding `COc1ccccc1/C=C/c1nnc(-c2cc(C)cc3c(=O)c4ccccc4c(=O)[nH]c23)o1`, the half-inhibitory concentration (IC50) amounted to 10700 nM in the assay on OVCAR-3 [1] (setting [4]) and 147 nM in assay [2] (read-out: IC50).
Regarding `Cc1cc(-c2nnc(CNC(=O)c3ccccc3Cl)o2)c2[nH]c(=O)c3ccccc3c(=O)c2c1`, the IC50 entry (with OVCAR-3 [1] (ovcar-3); in assay [2]) was “Not Active” each time.
`COc1ccc(F)cc1/C=C/c1nnc(-c2cccc3c(=O)c4ccccc4c(=O)[nH]c23)o1`: the IC50 was above 100000 nM with OVCAR-3 [1] (setting [4]) and 951 nM in assay [2] (read-out: IC50).
Turning to `COc1ccccc1/C=C/c1nnc(-c2cccc3c(=O)c4ccccc4c(=O)[nH]c23)o1`, the IC50 in the assay with OVCAR-3 [1] (setting [4]) came to 8990 nM; in assay [2] (read-out: IC50), 136 nM.
Take `O=C(NCc1nnc(-c2cccc3c(=O)c4ccccc4c(=O)[nH]c23)o1)c1ccccc1Cl`: the IC50 with OVCAR-3 [1] (setting [4]) was above 100000 nM; in assay [2] (read-out: IC50), 745 nM.
As for `COc1ccc(F)cc1/C=C/c1nnc(-c2cc(C)cc3c(=O)c4ccccc4c(=O)[nH]c23)o1`, the half-inhibitory concentration (IC50) in the assay on OVCAR-3 [1] (setting [4]) is above 100000 nM; in assay [2] (read-out: IC50) it was 1050 nM.
As to `Cc1cc(-c2nnc(CNC(=O)c3ccccc3)o2)c2[nH]c(=O)c3ccccc3c(=O)c2c1`, the results for the concentration for half-maximal inhibition (IC50) (in the assay with OVCAR-3 [1] (setting [4]); in assay [2] (read-out: IC50)) were 11400 nM and 304 nM, respectively.
In the case of `COc1c(Br)cc(Br)cc1/C=C/c1nnc(-c2cc(C)cc3c(=O)c4ccccc4c(=O)[nH]c23)o1`, the 50% inhibitory concentration (IC50) result with OVCAR-3 [1] (ovcar-3) was “Not Active”; in assay [2] (read-out: IC50), 939 nM.
Consider `COc1ccc(Br)cc1/C=C/c1nnc(-c2cc(C)cc3c(=O)c4ccccc4c(=O)[nH]c23)o1`, for which the 50% inhibitory concentration (IC50) entry (in the assay on OVCAR-3 [1] (ovcar-3); in assay [2]) was “Not Active” throughout.
As to `O=C(NCc1nnc(-c2cccc3c(=O)c4ccccc4c(=O)[nH]c23)o1)c1ccccc1`, the half-maximal inhibitory concentration (IC50) with OVCAR-3 [1] (setting [4]) is above 100000 nM; in assay [2] (read-out: IC50) it was 1260 nM.
The corresponding values for `Cc1cc(-c2nnc(-c3ccccc3Cl)o2)c2[nH]c(=O)c3ccccc3c(=O)c2c1` are 4190 nM and 51 nM.
Regarding `COc1ccc(Cl)cc1/C=C/c1nnc(-c2cccc3c(=O)c4ccccc4c(=O)[nH]c23)o1`, the IC50 with OVCAR-3 [1] (setting [4]) was above 100000 nM; in assay [2] (read-out: IC50) it was 1260 nM.
Regarding `Cc1cc(-c2nnc(/C=C/c3ccccc3)o2)c2[nH]c(=O)c3ccccc3c(=O)c2c1`, the results for the half-maximal inhibitory concentration (IC50) (with OVCAR-3 [1] (setting [4]); in assay [2] (read-out: IC50)) were 17700 nM and 446 nM, respectively.
In the case of `CNCc1ccc(-c2[nH]c3cc(F)cc4c3c2CCNC4=O)cc1` [RUCAPARIB], the half-maximal inhibitory concentration (IC50) in the assay with OVCAR-3 [1] (setting [4]) came to 3310 nM.
For the compound `O=c1[nH]c2c(-c3nnc(COc4ccccc4)o3)cccc2c(=O)c2ccccc12`, the 50% inhibitory concentration (IC50) with OVCAR-3 [1] (setting [4]) turned out to be 6280 nM; in assay [2] (read-out: IC50) it was 99 nM.
For `Cc1cc(-c2nnc(-c3ccccc3)o2)c2[nH]c(=O)c3ccccc3c(=O)c2c1`, the IC50 with OVCAR-3 [1] (setting [4]) was determined as 10100 nM; in assay [2] (read-out: IC50), 277 nM.
For `O=c1[nH]c2c(-c3nnc(-c4ccccc4Cl)o3)cccc2c(=O)c2ccccc12`, in that order: above 100000 nM and 1100 nM.
For `Cc1cc(-c2nnc(COc3ccccc3)o2)c2[nH]c(=O)c3ccccc3c(=O)c2c1`, the concentration for half-maximal inhibition (IC50) result (in the assay with OVCAR-3 [1] (ovcar-3); in assay [2]) was “Not Active” each time.
`COc1ccc(Cl)cc1/C=C/c1nnc(-c2cc(C)cc3c(=O)c4ccccc4c(=O)[nH]c23)o1`: the results for the 50% inhibitory concentration (IC50) (in the assay with OVCAR-3 [1] (setting [4]); in assay [2] (read-out: IC50)) were above 100000 nM and 1190 nM, respectively.
